Data published in PubChem BioAssay (NCI).
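The compound was tested at five concentrations on cells cultured in 96-well plates, with a 48-hour exposure period. Here, GI50 denotes the concentration required for 50% inhibition of growth. TGI is the concentration that stops growth completely.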

Experiments:
Experiment in all cases: inhibition of tumour cell growth, NCI panel, 48 h
DU-145 prostate = test system: DU-145 prostate
786-0 renal = test system: 786-0 renal
SF-268 CNS = test system: SF-268 CNS
NCI-H522 lung = test system: NCI-H522 lung
OVCAR-3 ovarian = test system: OVCAR-3 ovarian
HT29 colon = test system: HT29 colon
NCI-H23 lung = test system: NCI-H23 lung
OVCAR-4 ovarian = test system: OVCAR-4 ovarian
A549 NSCLC = test system: A549 NSCLC
MCF7 breast = test system: MCF7 breast

Structure (SMILES)	GI50 (DU-145 prostate) [µM]	TGI (DU-145 prostate) [µM]	GI50 (786-0 renal) [µM]	TGI (786-0 renal) [µM]	GI50 (SF-268 CNS) [µM]	TGI (SF-268 CNS) [µM]	GI50 (NCI-H522 lung) [µM]	TGI (NCI-H522 lung) [µM]	GI50 (OVCAR-3 ovarian) [µM]	TGI (OVCAR-3 ovarian) [µM]	GI50 (HT29 colon) [µM]	TGI (HT29 colon) [µM]	GI50 (NCI-H23 lung) [µM]	TGI (NCI-H23 lung) [µM]	GI50 (OVCAR-4 ovarian) [µM]	TGI (OVCAR-4 ovarian) [µM]	TGI (A549 NSCLC) [µM]	TGI (MCF7 breast) [µM]	GI50 (A549 NSCLC) [µM]	GI50 (MCF7 breast) [µM]
O=CC1(C2(C=O)c3ccccc3-c3ccccc32)c2ccccc2-c2ccccc21	2.29	5.83	2.16	5.34	2.37	6.03	2.01	4.38	1.4	3.39	1.32	2.51	2.11	4.82	2.02	5.26	–	–	–	–
Cc1cccc(NC(=O)CC#N)c1Cl	–	–	–	> 100	–	> 100	–	> 100	–	> 100	–	> 100	–	> 100	–	–	> 100	–	–	–
COc1ccc(C#CCC(OC2OC(CO)C(O)C(O)C2O)C(O)c2ccc(OC)c(OC)c2)cc1OC (stereo unspecified)	–	–	–	> 100	–	> 100	–	> 100	–	> 100	–	> 100	–	> 100	–	> 100	> 100	–	–	–
COc1ccc(CC2C3=C(CCCC3)CCN2C)cc1 (stereo unspecified)	–	> 100	–	> 100	–	> 100	–	–	–	> 100	–	> 100	–	> 100	–	> 100	> 100	> 100	–	–
CCSc1nc2n(c(=S)n1)CCN2C	–	–	–	52	–	65.8	–	19.3	–	49.3	–	37.2	–	–	–	44.5	61.3	–	–	–
CCC/C(=N\NC(=O)c1cc2ccccc2cc1O)C(CC)C(=O)CCC(=O)N(Cc1ccccc1)Cc1ccccc1 (stereo unspecified)	–	–	–	> 100	–	> 100	–	> 100	–	> 100	–	> 100	–	> 100	–	> 100	> 100	–	–	–
CCN(CC)CCOc1ccc(C(=C2CCCCC2)c2ccc(OCCN(CC)CC)cc2)cc1	–	–	–	2.69	–	3.23	–	3.29	–	3.62	–	2.32	–	3.56	–	4.77	3.16	–	–	–
CCN(CC(COc1ccc2c(c1)[n+]([O-])nc(N)[n+]2[O-])OC(C)=O)C(C)=O (stereo unspecified)	–	–	–	> 100	–	> 100	–	56.3	–	> 100	–	> 100	–	> 100	–	> 100	> 100	> 100	–	–
O=C(CCl)Nc1ccc2c(c1)C(=O)c1ccc(NC(=O)CCl)cc1C2=O	1.41	3.45	0.193	0.537	0.386	1.92	0.194	0.57	0.277	0.885	0.314	4.21	0.253	0.834	–	–	> 100	0.79	2.79	0.194
CC(=O)NC(CCCCNC(=O)N(C)N=O)C(=O)NCc1ccccc1 (stereo unspecified)	–	–	–	> 100	–	> 100	–	> 100	–	> 100	–	> 100	–	> 100	–	> 100	> 100	–	–	–
O=C(O)C1OC(Oc2cc(O)c3c(=O)cc(-c4ccc(O)cc4)oc3c2)C(O)C(O)C1O (stereo unspecified)	–	–	–	> 100	–	> 100	–	> 100	–	> 100	–	> 100	–	> 100	–	> 100	> 100	–	–	–
O=C1C(N2C(=O)c3ccccc3C2=O)CN1C(COCc1ccccc1)c1ccc(OCc2ccccc2)cc1 (stereo unspecified)	–	–	–	> 100	–	> 100	–	> 100	–	> 100	–	> 100	–	> 100	–	> 100	> 100	–	–	–
CC1=C(C(=O)Nc2ccccc2C)C(c2ccc(C3C(C(=O)Nc4ccccc4C)=CNC=C3C(=O)Nc3ccccc3C)cc2)C(C(=O)Nc2ccccc2C)=C(C)N1	–	–	–	29.3	–	17.4	–	18.9	–	39.5	–	29.3	–	36.5	–	22	> 100	–	–	–
CN(C)/C=N/c1nc2ncn(CCOC(=O)c3ccccc3)c2c(=O)[nH]1	–	–	–	> 100	–	> 100	–	> 100	–	> 100	–	> 100	–	–	–	> 100	> 100	–	–	–
Cc1nc2cc(N)c(Cl)cc2[nH]1	–	> 100	–	> 100	–	> 100	–	> 100	–	> 100	–	> 100	–	> 100	–	–	> 100	> 100	–	–
CC(O[Si](C)(C)C)C1C=CC(C)n2c(=O)n(-c3ccccc3)c(=O)n21 (stereo unspecified)	–	–	–	> 100	–	–	–	–	–	> 100	–	> 100	–	> 100	–	> 100	> 100	–	–	–
CSc1ccc2c(cc1=O)[C@@H](NC(=O)c1ccc(F)cc1)CCc1cc(O)c(O)c(O)c1-2	–	–	–	> 100	–	> 100	–	> 100	–	> 100	–	> 100	–	> 100	–	> 100	> 100	–	–	–
COC(=O)C(Cc1nc2ccccc2[nH]c1=O)C(=O)C(=O)Nc1ccc(OC)cc1[N+](=O)[O-] (stereo unspecified)	–	–	–	> 100	–	> 100	–	> 100	–	> 100	–	> 100	–	> 100	–	> 100	> 100	–	–	–
CCOC(=O)/C=C/c1ccccn1	–	–	–	> 100	–	> 100	–	> 100	–	–	–	> 100	–	> 100	–	> 100	> 100	–	–	–
ClC[Si]12OCCN(CCO1)CCO2	–	–	–	> 100	–	> 100	–	> 100	–	> 100	–	> 100	–	> 100	–	–	> 100	–	–	–
O=c1/c(=C/c2ccc3c(c2)OCO3)sc2nnc(-c3ccco3)n12	–	–	–	> 100	–	> 100	–	> 100	–	> 100	–	–	–	> 100	–	> 100	> 100	–	–	–
O=[N+]([O-])c1ccc(-c2cn(-c3ccc(Cl)cc3)cn2)cc1	–	> 100	–	36.5	–	> 100	–	14.4	–	35.3	–	> 100	–	> 100	–	–	> 100	> 100	–	–
N#CC1=C(c2ccccc2)C(O)(c2ccccc2)NC1=O (stereo unspecified)	–	–	–	> 100	–	> 100	–	–	–	> 100	–	> 100	–	> 100	–	> 100	> 100	–	–	–
Oc1cc2c(cc1O)-c1[nH]ncc1CC2	–	–	–	> 100	–	> 100	–	25.5	–	–	–	> 100	–	> 100	–	–	> 100	–	–	–
Cc1cc2c(cc1C)[n+](=O)c(C(=O)/C=C/c1ccccc1Cl)c(C)n2[O-]	–	–	–	30.3	–	95.9	–	26.7	–	88.8	–	> 100	–	46.7	–	> 100	> 100	–	–	–
